We go through one compound from US9044142B2, “Surgical optical systems for detecting brain tumors” (Carl Zeiss Meditec AG, priority 2010, dated 2015).

The subject of data set [1] is GL261-luc glioma cells. The experiment in a line: Intraoperative NIR fluorescence macroscopy of ICG in GL261-luc glioma mouse model. Format: in vivo. An excerpt:
(§1) The GL261 cell line was obtained from the Division of Cancer Treatment and Diagnosis (DCTD) of the National Cancer Institute (NCl), Frederick, Md. […] The morphological, biochemical and growth characteristics of the GL261 mouse brain tumor model have been described elsewhere (see, e.g., M. Candolfi et al., J Neurooncol 85, 133 (November, 2007) and T. Szatmari et al., Cancer Sci 97, 546 (June, 2006)). To facilitate a quantitative measurement of the tumor growth rate, GL261 cells were made bioluminescent using the Lentiphos™ HT System (Clontech Laboratories, Inc., Mountain View, Calif.) with the Lenti-X™ HT Packaging Mix (Clontech Laboratories, Inc.) and the FUW-GL plasmid (a generous gift from the laboratory of J. B. Rubin, MD, PhD). The resulting GL261-luc cells were grown in Dulbecco's modified eagle's medium (DMEM, Invitrogen, Carlsbad, Calif.) supplemented with 10% tetracycline-free fetal calf serum (Clontech Laboratories, Inc) at 37° C. with 5% CO2. Cultured cells were harvested by trypsinization, washed once in phosphate-buffered saline (Invitrogen, Carlsbad, Calif.), and resuspended in DMEM without serum at a concentration of 1×10^7 cells/mL.
Animals were anesthetized by intraperitoneal injection of a mixture of 10 mg/kg xylazine and 80 mg/kg ketamine (Wyeth, Madison, N.J.). A 10-mm incision was made starting between the animal's eyes, exposing the bregma. […]
This study was conducted in two main phases. The purpose of the first phase was to validate the use of ICG fluorescence in both intraoperative NIR macroscopic and miniaturized confocal endomicroscopic techniques for the identification of brain tumors in the mouse model. […] Several intraoperative fluorescence macroscopic video loops, confocal images, and histological specimens were collected and analyzed from each mouse. […] Two cohorts of animals were used in the second phase: (1) six mice were used for intraoperative fluorescence macroscopy and (2) six mice were used for intraoperative confocal endomicroscopy. […]

For data set [2] the following is noted: cited from earlier work.
Data set [3] deals with GL261-luc glioma cells. Nature of the data set: Intraoperative confocal endomicroscopy of ICG distribution in GL261-luc glioma mouse model. The class given is in vivo. The conditions noted are these: 0.4 mg/kg intravenously, mice. The protocol: Thirty mice implanted with glioblastoma cells underwent craniectomies for exposure of tumors 14 days implantation. Tumors were clearly visible macroscopically and extended from cortical surface to deep basal brain structures. ICG was then administered using 0.4 mg/kg, equivalent to a standard single dose for humans (see, e.g., I. Roberts et al., Lancet 342, (1993)). […] Other regions presented a complex mixture of these patterns, with mostly normal-appearing brain punctuated by large pleomorphic cells consistent with an infiltrative margin or satellite tumor cell clusters surrounded by brain tissue. Importantly, patterns consistent with tumor morphology were also seen in brain tissue neighboring the tumor that appeared macroscopically normal as viewed via the surgical microscope. Critically, individual tumor cells within brain tissue could be identified within 475×475 μm field of view and a definitive tumor border delimited (FIGS. 2A-2D).
as §1
Animals were anesthetized by intraperitoneal injection of a mixture of 10 mg/kg xylazine and 80 mg/kg ketamine (Wyeth, Madison, N.J.). A 10-mm incision was made starting between the animal's eyes, exposing the bregma. A bur hole was made 0.1 mm posterior to the bregma and 2.3 mm right of the midline using a small animal stereotactic headframe (Model 900, David Kopf Instruments, Tujunga, Calif.). […]
This study was conducted in two main phases. The purpose of the first phase was to validate the use of ICG fluorescence in both intraoperative NIR macroscopic and miniaturized confocal endomicroscopic techniques for the identification of brain tumors in the mouse model. […]

For data set [4] the following is noted: humans; cited from earlier work.

Turning to `CC1(C)C(/C=C/C=C/C=C/C=C2\N(CCCCS(=O)(=O)O)c3ccc4ccccc4c3C2(C)C)=[N+](CCCCS(=O)(=O)[O-])c2ccc3ccccc3c21` [ICG, Indocyanine green], the “intensity of macroscopic fluorescence in the central region of tumor” value in data set [1] (15 minutes after injection versus one minute) is recorded as “increased”. For the same compound, in data set [1] (after ICG injection, tumor 14 days after implantation, mice), the “macroscopic tumor visibility with NIR light” value was “macroscopically visible”. Also, the “macroscopic ICG fluorescence in vessels” value in data set [1] (immediately after intravenous injection) is given as “could be observed in major vessels”. Further, in data set [2] (after 10 minutes), the “fraction of originally injected volume detectable in the blood” value is given as “only a small fraction”. For the same compound, the “binding to globulins, preferentially to α1-lipoproteins” value in data set [2] (after intravenous injection) is on record as “almost completely”. In data set [2] (in vivo), the “main source of clearance” value is reported as “hepatic elimination” and the “metabolism in the body” value is listed as “not metabolized”. Besides, in data set [3], the “ICG distribution in normal-appearing brain distant from the tumor (confocal endomicroscopy)” value is “predominantly intravascular ICG distribution” and the “ICG distribution within obvious tumor tissue (confocal endomicroscopy)” value is given as “extravascular ICG concentrated in clusters of cellular structures”. The “ICG fluorescence of tumor cells (confocal endomicroscopy)” value in data set [3] (fifteen minutes after ICG injection) is recorded as “entire tumor mass was saturated with ICG”. Moreover, the “ICG fluorescence of tumor cells (confocal endomicroscopy)” value in data set [3] (immediately after ICG injection) is “fluorescence was seen only in a few clusters of tumor cells”. Further, the toxicity entry in data set [4] was “one of the least toxic substances ever administered to humans”.
